{"source": "patent US20060094790A1", "about": "“Use of sphingosine kinase activator as skin disease treating agent and method for treating skin diseases using the same” (priority 2004, published 2006)", "key": {"rabbits": {"system": "rabbits", "details": "rabbit, in vivo", "quoted_text": "(§1) Those tests were performed based on “Toxicity Test Standards for Pharmaceutical Products” disclosed by the Korea Food & Drug Administration."}, "human body": {"system": "human body", "details": "in vivo", "quoted_text": "as §1"}, "guinea pigs": {"system": "guinea pigs", "details": "guinea pig, in vivo", "quoted_text": "as §1"}, "hairless mouse [1]": {"system": "hairless mouse", "experiment": "Recovery of calcium gradient on epidermis, acute disruption model by tape stripping", "assay_type": "in vivo", "details": "1.0% in PEG:EtOH=7:3, after tape stripping, compared to control", "procedure": "To determine the effect of recovering skin barrier effects obtained by the compound according to the present invention, the compound was evaluated for the effect of recovering a calcium ion gradient in the epidermis.\nThe calcium gradient in the epidermis plays very important role in maintaining homoeostasis of the skin barrier function. For example, when a hairless mouse is subjected to acute disruption on its back by tape stripping, the calcium ion gradient in the epidermis is lost. Therefore, it is possible to evaluate the effect of a test sample upon recovery of a damaged skin barrier by observing recovery of the calcium gradient loss in an acute disruption model.\nIn the following test, K6PC-5 according to the present invention was evaluated for the effect upon variations in calcium gradient in an acute disruption model.\nTissues non-treated with the sample were provided as control, and tissues were collected right after the tape striping, and 3, 6 and 24 hours after the tape stripping. Then, the tissues treated with K6PC-5 (1.0% in PEG:EtOH=7:3) were compared with controls, which are treated by calcium ion capture cell chemical dyeing. More particularly, each freshly collected tissue sample was fixed with a fixing solution comprising 2% glutaraldehyde, 2% formaldehyde, 90 mM potassium oxalate and 1.4% sucrose and refrigerated at 4° C. […]"}, "hairless mouse [2]": {"system": "hairless mouse", "assay_type": "in vivo", "details": "1.0% in PEG:EtOH=7:3 combined with 0.05% chlobetason-17-propionate, back of hairless mouse, H & E staining", "from_the_text": "To evaluate effect of the sphingosine kinase activator upon inhibition of steroid side effects, a steroid was applied to a hairless mouse. Typically, side effects caused by long-term or excessive dose of steroids include skin atrophy expressed by thinning of skin and weakening of skin functions, and a rebound phenomenon including reoccurrence of conditions caused by stopping use of steroids. It is reported that the main cause for such side effects is inhibition of fibroblast activity and a decrease in collagen production (S. Hammer et al., J. Cell. Biochem, 91, 840-851, 2004), Therefore, it is expected that the compound according to the present invention enhances collagen synthesis and differentiation of keratinocytes, and thus inhibits such side effects caused by steroids. To perform a test, a steroid, i.e. 0.05% chlobetason-17-propionate, and […]-5 according to the present invention (1.0% in PEG:EtOH=7:3) were applied to a hairless mouse and changes in the skin were observed. The treating agents were applied to the back of a hairless mouse 9 times per day and the tissue was collected. Then, the epidermis and dermis were observed by carrying out the H & E staining method (hematoxylin and eosin staining) known to one skilled in the art."}, "SD rat": {"system": "SD rat", "experiment": "Inhibition of wrinkles and skin aging, UV-induced wrinkle model", "assay_type": "in vivo", "procedure": "Generally, continuous exposure to UV causes wrinkles and side effects such as sun burn and skin irritation, resulting in stimulation of skin aging.\nTo perform the evaluation, an SD rat with three wrinkles is irradiated with UVB under an intensity of 130 mJ/cm^2 at its rear leg […] for 6 weeks. Then, 10 μl (1% in 80% EtOH) of K6PC-5 was applied to the skin of rear leg right after each time of UV irradiation, UV irradiation being performed 5 times per week during 6 weeks from the start day of the UV irradiation. Nine weeks after the treatment, the rat was anesthetized with albutin and the wrinkles were photographed. Additionally, wrinkle-forming portions were replicated by using an exafine hydrophilic vinyl polysiloxane impression material. The replicated images were analyzed quantitively for shadow images by using an image analyzer."}, "fibroblasts": {"system": "fibroblasts", "experiment": "Collagen synthesis in fibroblasts (PICP, collagen measuring kit)", "assay_type": "cell-based", "details": "72 hours; for Amount of PICP produced in fibroblasts (average ± SEM): non-treated control 47.1 ± 9.7", "procedure": "The following experiment was performed by using fibroblasts in order to evaluate the effect of sphingosine kinase activator upon collagen synthesis.\nEach of K6PC4, K6PC-5, K6PC-7 and K6PC-9 was dissolved in DMSO at a concentration of 0.3 and 1.0 μg/ml. The solutions were used as samples and analyzed for collagen synthesis after incubation for 72 hours. 72 hours after the treatment of the sample, culture solution was discarded, cells were washed with serum-free DMEM three times, and cells were cultured again by using flesh serum-free DMEM. After incubation, supernatant in each well was combined and analyzed for the amount of PICP (procollagen type I C-peptide) by using a collagen measuring kit. The standard solution contained in the collagen measuring kit was diluted with a sample and absorption at 450 nm was measured to construct a standard concentration curve (see the following Table 2).\nTo an antibody-coated microtiter plate comprising a primary collagen antibody applied unifomrily thereto, 100 μl of an antibody-POD conjugate solution and the cell supernatant collected as described above were added, followed by incubation at 37° C. for 3 hours, to induce an antigen-antibody reaction. Then, the reaction mixture was subjected to washing and color developing. After the reaction, the reaction mixture developed a yellow color, wherein the yellowness depended on reaction degrees. Also, 96 well plates developing a yellow color were determined at 450 nm by using a microtiter plate reader."}, "rats": {"system": "rats", "details": "rat, in vivo", "quoted_text": "as §1"}}, "data": [{"smiles": "CCCCCCCC(=O)C(CCCCCC)C(=O)NC(CO)CO", "note": "(stereo not shown) [K6PC-5, N-(1,3-dihydroxyisopropyl)-2-hexyl-3-oxo-decanamide]", "values": [{"measurement": "Ophthalmic mucous membrane irritation test result", "setting": "rabbits", "value": "No irritation"}, {"measurement": "Human body application test result", "setting": "human body", "value": "No irritation"}, {"measurement": "Skin sensitization test result", "setting": "guinea pigs", "value": "No irritation"}, {"measurement": "improvement in the condition of wrinkles around the eye", "setting": "human subjects; cream containing 1% of K6PC-5, 8 weeks, versus control cream, P<0.05 t-test", "value": "statistically significant improvement in the condition of wrinkles"}, {"measurement": "skin irritation or hypersensitive reaction (inspection of dermatologists)", "setting": "human subjects; human, in vivo", "value": "no skin irritation or hypersensitive reaction"}, {"measurement": "recovery of calcium gradient in the epidermis", "setting": "hairless mouse [1]", "value": "began to be recovered, from 3 hours after the treatment, to form the normal calcium gradient rapidly"}, {"measurement": "inhibition of steroid side effects (skin atrophy)", "setting": "hairless mouse [2]", "value": "significant inhibition of side effects caused by steroids"}, {"measurement": "inhibition of wrinkles compared to vehicle control", "setting": "SD rat; 10 μl of 1% in 80% EtOH after each UVB irradiation (130 mJ/cm^2), 6 weeks, replica image analysis", "value": "about 63%"}, {"measurement": "erythema caused by UV compared to vehicle control", "setting": "SD rat; 10 μl of 1% in 80% EtOH after each UVB irradiation, skin photograph FIG. 4b", "value": "decrease in erythema"}, {"measurement": "Amount of PICP produced in fibroblasts (average ± SEM)", "setting": "fibroblasts; 0.3 μg/ml", "value": "111.2 ± 3.9"}, {"measurement": "Amount of PICP produced in fibroblasts (average ± SEM)", "setting": "fibroblasts; 1.0 μg/ml", "value": "96.0 ± 5.6"}, {"measurement": "collagen synthesis increase as compared to the non-treated control", "setting": "fibroblasts; fibroblasts, 0.3 or 1.0 μg/ml (concentration not given)", "value": "about 2.4 times"}, {"measurement": "Single dose oral toxicity test result", "setting": "rats", "value": "No irritation"}]}]}
